Laboratory results as given in ChEMBL document CHEMBL1201862, “PubChem BioAssay data set” (2004).
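Each compound was tested at five concentrations against cells in 96-well plates for 48 hours. At the GI50, growth is halved.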 Activity calls are given as the source filed them. No stated cut-off is given here; in the data, active = GI50 up to about 1.1 µM and inactive = higher.

How the values were obtained:
Test in all cases: NCI anticancer screen, dose series, 48 h
[1] = test system: HOP-62
[2] = test system: UACC-257
[3] = test system: RPMI-8226
[4] = test system: IGROV-1
[5] = test system: 786-0
[6] = test system: MOLT-4
[7] = test system: OVCAR-3
[8] = test system: UO-31
[9] = test system: SF-295
[10] = test system: CCRF-CEM
[11] = test system: A549
[12] = test system: HOP-92
[13] = test system: HL-60
[14] = test system: SK-MEL-5
[15] = test system: NCI-H460
[16] = test system: RXF 393
[17] = test system: HCT-116
[18] = test system: SN12C
[19] = test system: SR

Compound	GI50 [1]	GI50 [2]	GI50 [3]	GI50 [4]	GI50 [5]	GI50 [6]	GI50 [7]	GI50 [8]	GI50 [9]	GI50 [10]	GI50 [11]	GI50 [12]	GI50 [13]	GI50 [14]	GI50 [15]	GI50 [16]	GI50 [17]	GI50 [18]	GI50 [19]
CCC1C(=O)OCc2c1cc1n(c2=O)C(CC)c2c-1nc1ccccc1c2Cl (stereo not given)	20.7 µM (inactive)	29.6 µM (inactive)	13.2 µM (inactive)	19.9 µM (inactive)	15.7 µM (inactive)	10.4 µM (inactive)	20.3 µM (inactive)	23.9 µM (inactive)	23.4 µM (inactive)	11.6 µM (inactive)	26.7 µM (inactive)	26.9 µM (inactive)	22.2 µM (inactive)	16.7 µM (inactive)	15.1 µM (inactive)	–	–	–	–
CCOc1ccc(NC(=O)CC2SC(N)=NC2=O)cc1 (stereo not given)	> 100 µM (inactive)	> 100 µM (inactive)	> 100 µM (inactive)	> 100 µM (inactive)	> 100 µM (inactive)	> 100 µM (inactive)	> 100 µM (inactive)	> 100 µM (inactive)	> 100 µM (inactive)	> 100 µM (inactive)	> 100 µM (inactive)	55.8 µM (inactive)	> 100 µM (inactive)	> 100 µM (inactive)	> 100 µM (inactive)	> 100 µM (inactive)	> 100 µM (inactive)	> 100 µM (inactive)	–
COc1cc([C@@H]2c3cc4c(cc3[C@@H](NC(=O)c3ccc(C(C)=O)cc3)C3COC(=O)[C@@H]32)OCO4)cc(OC)c1O (stereo not given in full)	0.151 µM (active)	3.88 µM (inactive)	0.877 µM (active)	1.03 µM (active)	0.327 µM (active)	< 0.01 µM (active)	2.38 µM (inactive)	4.57 µM (inactive)	0.6 µM (active)	0.0849 µM (active)	0.0311 µM (active)	1.19 µM (inactive)	0.0867 µM (active)	1.46 µM (inactive)	< 0.01 µM (active)	3.76 µM (inactive)	0.52 µM (active)	0.275 µM (active)	–
COc1ccc(OC(C(=O)O)C(C)C)c2c1CCCC2=O (stereo not given)	> 100 µM (inactive)	> 100 µM (inactive)	> 100 µM (inactive)	> 100 µM (inactive)	> 100 µM (inactive)	> 100 µM (inactive)	> 100 µM (inactive)	> 100 µM (inactive)	> 100 µM (inactive)	> 100 µM (inactive)	> 100 µM (inactive)	–	> 100 µM (inactive)	> 100 µM (inactive)	> 100 µM (inactive)	–	> 100 µM (inactive)	> 100 µM (inactive)	–
CC(=O)OC12c3ccccc3C1CCCC21OCCCO1 (stereo not given)	> 100 µM (inactive)	> 100 µM (inactive)	> 100 µM (inactive)	> 100 µM (inactive)	> 100 µM (inactive)	> 100 µM (inactive)	> 100 µM (inactive)	> 100 µM (inactive)	> 100 µM (inactive)	> 100 µM (inactive)	> 100 µM (inactive)	–	–	–	> 100 µM (inactive)	> 100 µM (inactive)	> 100 µM (inactive)	> 100 µM (inactive)	–
CN/N=C(/Cc1occc(=O)c1O)C(=O)Nc1ccc(C)c(C)c1	> 100 µM (inactive)	> 100 µM (inactive)	> 100 µM (inactive)	> 100 µM (inactive)	> 100 µM (inactive)	> 100 µM (inactive)	> 100 µM (inactive)	> 100 µM (inactive)	> 100 µM (inactive)	> 100 µM (inactive)	> 100 µM (inactive)	> 100 µM (inactive)	> 100 µM (inactive)	> 100 µM (inactive)	> 100 µM (inactive)	–	> 100 µM (inactive)	> 100 µM (inactive)	> 100 µM (inactive)
CN(C)c1nc(N(C)C)nc(N(C)CN(C)c2ccc(Cl)cc2)n1	–	> 100 µM (inactive)	–	> 100 µM (inactive)	–	> 100 µM (inactive)	39 µM (inactive)	> 100 µM (inactive)	> 100 µM (inactive)	> 100 µM (inactive)	> 100 µM (inactive)	–	1.72 µM (inactive)	> 100 µM (inactive)	> 100 µM (inactive)	> 100 µM (inactive)	> 100 µM (inactive)	> 100 µM (inactive)	–
O=C1NC(=O)C2C(=O)NC(=O)C1C2(c1ccccc1)c1ccc(Cl)cc1 (stereo not given)	> 100 µM (inactive)	> 100 µM (inactive)	> 100 µM (inactive)	> 100 µM (inactive)	> 100 µM (inactive)	> 100 µM (inactive)	> 100 µM (inactive)	> 100 µM (inactive)	> 100 µM (inactive)	> 100 µM (inactive)	> 100 µM (inactive)	> 100 µM (inactive)	> 100 µM (inactive)	> 100 µM (inactive)	> 100 µM (inactive)	> 100 µM (inactive)	–	> 100 µM (inactive)	–
CN(/N=C/c1cccc2cccnc12)c1ccccc1	76.2 µM (inactive)	52 µM (inactive)	> 100 µM (inactive)	73.6 µM (inactive)	55.3 µM (inactive)	> 100 µM (inactive)	13.2 µM (inactive)	> 100 µM (inactive)	99.3 µM (inactive)	> 100 µM (inactive)	> 100 µM (inactive)	51.9 µM (inactive)	> 100 µM (inactive)	> 100 µM (inactive)	79.6 µM (inactive)	41.9 µM (inactive)	–	> 100 µM (inactive)	–
NC12CC3CC(C1)CC(Cl)(C3)C2	> 100 µM (inactive)	> 100 µM (inactive)	> 100 µM (inactive)	> 100 µM (inactive)	> 100 µM (inactive)	> 100 µM (inactive)	> 100 µM (inactive)	> 100 µM (inactive)	–	> 100 µM (inactive)	> 100 µM (inactive)	> 100 µM (inactive)	> 100 µM (inactive)	–	> 100 µM (inactive)	> 100 µM (inactive)	> 100 µM (inactive)	–	–
Cc1ccc(S(=O)(=O)NCC2CCCCC2=O)cc1 (stereo not given)	–	16.4 µM (inactive)	40.8 µM (inactive)	> 100 µM (inactive)	> 100 µM (inactive)	49.7 µM (inactive)	> 100 µM (inactive)	57.3 µM (inactive)	> 100 µM (inactive)	> 100 µM (inactive)	> 100 µM (inactive)	24.2 µM (inactive)	45.3 µM (inactive)	82.4 µM (inactive)	> 100 µM (inactive)	> 100 µM (inactive)	> 100 µM (inactive)	> 100 µM (inactive)	–
O=C(CCN(C(=O)O)S(=O)(=O)c1ccc(NC(=O)c2ccccc2)cc1)NC1CCCCC1	> 100 µM (inactive)	> 100 µM (inactive)	16.5 µM (inactive)	> 100 µM (inactive)	12.6 µM (inactive)	21.4 µM (inactive)	> 100 µM (inactive)	> 100 µM (inactive)	> 100 µM (inactive)	27.6 µM (inactive)	> 100 µM (inactive)	> 100 µM (inactive)	30.3 µM (inactive)	> 100 µM (inactive)	42.4 µM (inactive)	–	> 100 µM (inactive)	> 100 µM (inactive)	17.8 µM (inactive)
O=C(CCC(=O)C1CCC/C1=N/O)Nc1ccc(Cl)cc1 (stereo not given)	> 100 µM (inactive)	> 100 µM (inactive)	> 100 µM (inactive)	> 100 µM (inactive)	> 100 µM (inactive)	> 100 µM (inactive)	> 100 µM (inactive)	> 100 µM (inactive)	> 100 µM (inactive)	> 100 µM (inactive)	> 100 µM (inactive)	> 100 µM (inactive)	> 100 µM (inactive)	> 100 µM (inactive)	> 100 µM (inactive)	–	> 100 µM (inactive)	> 100 µM (inactive)	> 100 µM (inactive)
CN1Cc2c(nc(-c3ccccc3)c[n+]2[O-])N(C)C1	> 100 µM (inactive)	> 100 µM (inactive)	> 100 µM (inactive)	> 100 µM (inactive)	> 100 µM (inactive)	> 100 µM (inactive)	> 100 µM (inactive)	> 100 µM (inactive)	> 100 µM (inactive)	> 100 µM (inactive)	> 100 µM (inactive)	> 100 µM (inactive)	> 100 µM (inactive)	> 100 µM (inactive)	> 100 µM (inactive)	–	–	> 100 µM (inactive)	–
CCOC(=O)C1=C(N)N(c2ccccc2)/C(=C(/C#N)c2nc3ccccc3[nH]2)S1	> 100 µM (inactive)	> 100 µM (inactive)	–	> 100 µM (inactive)	> 100 µM (inactive)	> 100 µM (inactive)	> 100 µM (inactive)	> 100 µM (inactive)	> 100 µM (inactive)	> 100 µM (inactive)	> 100 µM (inactive)	> 100 µM (inactive)	> 100 µM (inactive)	> 100 µM (inactive)	43 µM (inactive)	> 100 µM (inactive)	> 100 µM (inactive)	> 100 µM (inactive)	–
C=C1C(=O)C23C(O)CC4C5(C)CCCC4(C(O)OC5)C2C(OC(C)=O)CC1C3O (stereo not given)	17.5 µM (inactive)	–	3.64 µM (inactive)	19.4 µM (inactive)	6.31 µM (inactive)	3.66 µM (inactive)	13.2 µM (inactive)	34.5 µM (inactive)	21.5 µM (inactive)	1.88 µM (inactive)	20.8 µM (inactive)	3.52 µM (inactive)	–	14.8 µM (inactive)	4.97 µM (inactive)	–	5.11 µM (inactive)	10.6 µM (inactive)	3.01 µM (inactive)
